Molecular target: Helios (IKZF2) (Homo sapiens, UniProt Q96SW2+Q9UKS7)
Test: Screening of Helios protein degraders using Nano-Glo HiBiT cell line (HiBiT-IKZF2)
Assay type: cell-based
Conditions: for remaining activity at 10 µM: compound 10 μM, read-out: HiBiT-IKZF2 Residual amount of Helios (%) 10 μM; for remaining activity at 10 µM / remaining activity at 1 µM: 6 hours, HiBiT-Helios knock-in Jurkat cells; for remaining activity at 1 µM: compound 1 μM, read-out: HiBiT-IKZF2 Residual amount of Helios (%) 1 μM
Method: To observe intracellular degradation of Helios, the Nano-Glo HiBiT detection system (Promega) was employed. […] The cells expressing Helios fused with HiBiT were validated using the Nano-Glo HiBiT detection system (Promega) according to a predetermined protocol, isolated as single cells, and cultured in complete medium to establish a monoclonal cell line.
After 6 hours, the Nano-Glo HiBiT detection reagent was added to each well in an equal volume to the cell culture medium and incubated at room temperature for 10 minutes. Following incubation, the HiBiT luminescence signal was measured using a microplate reader (Perkin Elmer).

Chain of Helios (IKZF2) (Q9UKS7 whole entry): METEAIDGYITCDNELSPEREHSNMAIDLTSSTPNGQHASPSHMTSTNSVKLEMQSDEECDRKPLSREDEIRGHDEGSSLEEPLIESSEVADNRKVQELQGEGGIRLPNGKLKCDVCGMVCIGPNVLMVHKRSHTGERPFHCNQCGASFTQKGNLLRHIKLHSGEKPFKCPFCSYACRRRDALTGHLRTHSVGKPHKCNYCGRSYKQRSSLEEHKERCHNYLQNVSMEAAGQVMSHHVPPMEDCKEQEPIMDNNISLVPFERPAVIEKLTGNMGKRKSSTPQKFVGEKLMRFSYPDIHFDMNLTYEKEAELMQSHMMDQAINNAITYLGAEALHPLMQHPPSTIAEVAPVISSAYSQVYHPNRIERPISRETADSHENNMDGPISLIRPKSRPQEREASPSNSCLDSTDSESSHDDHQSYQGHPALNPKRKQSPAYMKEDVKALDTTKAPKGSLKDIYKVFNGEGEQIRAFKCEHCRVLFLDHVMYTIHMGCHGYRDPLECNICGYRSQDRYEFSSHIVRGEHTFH
Chain of Helios (IKZF2) (Q96SW2 whole entry): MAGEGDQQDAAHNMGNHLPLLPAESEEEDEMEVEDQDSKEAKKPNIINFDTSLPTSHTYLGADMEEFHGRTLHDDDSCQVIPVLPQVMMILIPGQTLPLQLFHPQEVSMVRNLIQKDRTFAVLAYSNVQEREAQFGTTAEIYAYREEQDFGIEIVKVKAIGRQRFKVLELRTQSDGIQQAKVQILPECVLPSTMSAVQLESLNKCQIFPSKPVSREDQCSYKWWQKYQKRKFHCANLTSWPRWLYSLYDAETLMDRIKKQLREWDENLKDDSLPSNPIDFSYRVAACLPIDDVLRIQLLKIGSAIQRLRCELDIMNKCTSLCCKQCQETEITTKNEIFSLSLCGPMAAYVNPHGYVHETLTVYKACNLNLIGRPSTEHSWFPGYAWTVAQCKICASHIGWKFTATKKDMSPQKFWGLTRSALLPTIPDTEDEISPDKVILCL
Chain of Helios (IKZF2) (Q16531 whole entry partner): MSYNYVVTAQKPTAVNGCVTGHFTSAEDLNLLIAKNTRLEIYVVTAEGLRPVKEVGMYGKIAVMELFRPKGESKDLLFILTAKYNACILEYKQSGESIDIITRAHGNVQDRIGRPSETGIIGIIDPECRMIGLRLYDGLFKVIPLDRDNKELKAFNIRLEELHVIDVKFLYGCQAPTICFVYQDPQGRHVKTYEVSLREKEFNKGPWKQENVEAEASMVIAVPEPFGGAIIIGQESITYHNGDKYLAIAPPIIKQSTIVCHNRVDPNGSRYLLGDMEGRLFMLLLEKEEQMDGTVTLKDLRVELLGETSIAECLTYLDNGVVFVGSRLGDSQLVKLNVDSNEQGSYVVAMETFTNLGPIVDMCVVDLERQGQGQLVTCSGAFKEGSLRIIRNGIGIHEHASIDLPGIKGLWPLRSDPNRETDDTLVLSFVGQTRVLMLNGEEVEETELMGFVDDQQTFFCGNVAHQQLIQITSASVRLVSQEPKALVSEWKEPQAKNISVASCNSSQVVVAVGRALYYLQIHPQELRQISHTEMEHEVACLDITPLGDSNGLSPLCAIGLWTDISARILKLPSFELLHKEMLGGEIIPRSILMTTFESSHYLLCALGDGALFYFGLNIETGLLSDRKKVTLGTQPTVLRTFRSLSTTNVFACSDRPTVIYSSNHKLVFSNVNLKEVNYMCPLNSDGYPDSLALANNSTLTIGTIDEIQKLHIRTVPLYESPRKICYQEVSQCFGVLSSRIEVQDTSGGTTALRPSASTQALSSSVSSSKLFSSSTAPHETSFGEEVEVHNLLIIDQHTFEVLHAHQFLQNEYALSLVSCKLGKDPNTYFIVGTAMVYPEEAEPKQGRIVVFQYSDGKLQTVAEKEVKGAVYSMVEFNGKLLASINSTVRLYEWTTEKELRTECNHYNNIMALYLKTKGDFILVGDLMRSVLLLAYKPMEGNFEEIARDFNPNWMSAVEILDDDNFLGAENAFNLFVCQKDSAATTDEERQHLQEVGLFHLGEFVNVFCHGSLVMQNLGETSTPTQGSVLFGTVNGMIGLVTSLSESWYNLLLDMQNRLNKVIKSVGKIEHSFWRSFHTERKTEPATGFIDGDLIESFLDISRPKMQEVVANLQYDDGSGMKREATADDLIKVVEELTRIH

| remaining activity at 10 µM | remaining activity at 1 µM | Compound | IKZF2 degradation activity (in words, comment on Table 1) (as shown in Table 1) |
| --- | --- | --- | --- |
| 40% |  | O=C1CCC(N2Cc3cc(C4CCN(Cc5ccccc5)CC4)ccc3C2=O)C(=O)N1 (stereo not drawn) [Comparative Substance 1 (DKY709), reference compound] |  |
| 100% |  | O=C1CCC(N2Cc3cc(C4CCN(C(=O)c5c[nH]c6cc(Cl)ccc56)CC4)ccc3C2=O)C(=O)N1 (stereo not drawn) [Comparative Substance 2, 3-(5-(1-(6-chloro-1H-indole-3-carbonyl)piperidin-4-yl)-1-oxoinsoindolin-2-yl)piperidine-2,6-dione, reference compound] |  |
| 100% |  | O=C1CCC(N2Cc3cc(C4CCN(C(=O)c5nc6ccc(Cl)cc6[nH]5)CC4)ccc3C2=O)C(=O)N1 (stereo not drawn) [Comparative Substance 3, 3-(5-(1-(6-chloro-1H-benzo[d]imidazole-2-carbonyl)piperidin-4-yl)-1-oxoinsoindolin-2-yl)piperidine-2,6-dione, reference compound] | no IKZF2 degradation activity was observed |
| 56.2% | 58% | COc1ccc2cc(C(=O)Nc3ccc4c(c3)CN(C3CCC(=O)NC3=O)C4=O)ccc2c1 (stereo not drawn) [Comparative Substance 4, N-(2-(2,6-dioxopiperidin-3-yl)-1-oxoindolin-5-yl)-6-methoxy-2-naphthamide, reference compound] |  |
| 92.1% | 78.3% | O=C1CCC(N2Cc3cc(C4CCN(C(=O)c5cc6ccc(Cl)c(Cl)c6[nH]5)CC4)ccc3C2=O)C(=O)N1 (stereo not drawn) [Compound 2, 3-(5-(1-(6,7-dichloro-1H-indole-2-carbonyl)piperidin-4-yl)-1-oxoinsoindolin-2-yl)piperidine-2,6-dione] |  |
| 106% | 102% | O=C1CCC(N2Cc3cc(C4CCN(C(=O)c5cc6cc(Cl)ccc6[nH]5)CC4)ccc3C2=O)C(=O)N1 (stereo not drawn) [Compound 3, 3-(5-(1-(5-chloro-1H-indole-2-carbonyl)piperidin-4-yl)-1-oxoinsoindolin-2-yl)piperidine-2,6-dione] |  |
| 106% | 104% | O=C1CCC(N2Cc3cc(C4CCN(C(=O)C5=Nc6cccc(Cl)c6C5)CC4)ccc3C2=O)C(=O)N1 (stereo not drawn) [Compound 4, 3-(5-(1-(4-chloro-1H-indole-2-carbonyl)piperidin-4-yl)-1-oxoinsoindolin-2-yl)piperidine-2,6-dione] |  |
| 88.2% | 86.7% | COc1ccc2cc(C(=O)N3CCC(c4ccc5c(c4)CN(C4CCC(=O)NC4=O)C5=O)CC3)[nH]c2c1 (stereo not drawn) [Compound 5, 3-(5-(1-(6-methoxy-1H-indole-2-carbonyl)piperidin-4-yl)-1-oxoinsoindolin-2-yl)piperidine-2,6-dione] |  |
| 107% | 107% | O=C1CCC(N2Cc3cc(C4CCN(C(=O)c5cc6c(Cl)cc(Cl)cc6[nH]5)CC4)ccc3C2=O)C(=O)N1 (stereo not drawn) [Compound 6, 3-(5-(1-(4,6-dichloro-1H-indole-2-carbonyl)piperidin-4-yl)-1-oxoinsoindolin-2-yl)piperidine-2,6-dione] |  |
| 98.6% | 93.3% | O=C1CCC(N2Cc3cc(C4CCN(C(=O)c5cc6ccc(F)cc6[nH]5)CC4)ccc3C2=O)C(=O)N1 (stereo not drawn) [Compound 7, 3-(5-(1-(6-fluoro-1H-indole-2-carbonyl)piperidin-4-yl)-1-oxoinsoindolin-2-yl)piperidine-2,6-dione] |  |
| 109% | 99.5% | O=C1CCC(N2Cc3cc(C4CCN(C(=O)c5cc6cccc(Cl)c6[nH]5)CC4)ccc3C2=O)C(=O)N1 (stereo not drawn) [Compound 8, 3-(5-(1-(7-chloro-1H-indole-2-carbonyl)piperidin-4-yl)-1-oxoinsoindolin-2-yl)piperidine-2,6-dione] |  |
| 99.5% | 94.5% | O=C1CCC(N2Cc3cc(C4CCN(C(=O)c5cc6ccccc6[nH]5)CC4)ccc3C2=O)C(=O)N1 (stereo not drawn) [Compound 9, 3-(5-(1-(1H-indole-2-carbonyl)piperidin-4-yl)-1-oxoinsoindolin-2-yl)piperidine-2,6-dione] |  |
| 97.3% | 94.6% | COc1ccc2[nH]c(C(=O)N3CCC(c4ccc5c(c4)CN(C4CCC(=O)NC4=O)C5=O)CC3)cc2c1 (stereo not drawn) [Compound 10, 3-(5-(1-(5-methoxy-1H-indole-2-carbonyl)piperidin-4-yl)-1-oxoinsoindolin-2-yl)piperidine-2,6-dione] |  |
| 98% | 99.5% | COc1cccc2[nH]c(C(=O)N3CCC(c4ccc5c(c4)CN(C4CCC(=O)NC4=O)C5=O)CC3)cc12 (stereo not drawn) [Compound 11, 3-(5-(1-(4-methoxy-1H-indole-2-carbonyl)piperidin-4-yl)-1-oxoinsoindolin-2-yl)piperidine-2,6-dione] |  |
| 94.1% | 89.9% | COc1cccc2cc(C(=O)N3CCC(c4ccc5c(c4)CN(C4CCC(=O)NC4=O)C5=O)CC3)[nH]c12 (stereo not drawn) [Compound 12, 3-(5-(1-(7-methoxy-1H-indole-2-carbonyl)piperidin-4-yl)-1-oxoinsoindolin-2-yl)piperidine-2,6-dione] |  |
| 98.4% | 89% | Cc1cccc2[nH]c(C(=O)N3CCC(c4ccc5c(c4)CN(C4CCC(=O)NC4=O)C5=O)CC3)cc12 (stereo not drawn) [Compound 14, 3-(5-(1-(4-methyl-1H-indole-2-carbonyl)piperidin-4-yl)-1-oxoinsoindolin-2-yl)piperidine-2,6-dione] |  |
| 73% | 66.9% | Cc1ccc2cc(C(=O)N3CCC(c4ccc5c(c4)CN(C4CCC(=O)NC4=O)C5=O)CC3)[nH]c2c1 (stereo not drawn) [Compound 15, 3-(5-(1-(6-methyl-1H-indole-2-carbonyl)piperidin-4-yl)-1-oxoinsoindolin-2-yl)piperidine-2,6-dione] |  |
| 80.4% | 78.5% | Cc1cccc2cc(C(=O)N3CCC(c4ccc5c(c4)CN(C4CCC(=O)NC4=O)C5=O)CC3)[nH]c12 (stereo not drawn) [Compound 16, 3-(5-(1-(7-methyl-1H-indole-2-carbonyl)piperidin-4-yl)-1-oxoinsoindolin-2-yl)piperidine-2,6-dione] |  |
| 96.6% | 95% | O=C1CCC(N2Cc3cc(C4CCN(C(=O)c5cc6cc(F)ccc6[nH]5)CC4)ccc3C2=O)C(=O)N1 (stereo not drawn) [Compound 17, 3-(5-(1-(5-fluoro-1H-indole-2-carbonyl)piperidin-4-yl)-1-oxoinsoindolin-2-yl)piperidine-2,6-dione] |  |
| 54.4% | 53.6% | O=C1CCC(N2Cc3cc(C4CCN(C(=O)c5cc6ccc(O)cc6[nH]5)CC4)ccc3C2=O)C(=O)N1 (stereo not drawn) [Compound 18, 3-(5-(1-(6-hydroxy-1H-indole-2-carbonyl)piperidin-4-yl)-1-oxoinsoindolin-2-yl)piperidine-2,6-dione] |  |
| 82.7% | 80.5% | O=C1CCC(N2Cc3cc(C4CCN(C(=O)c5cc6cccc(F)c6[nH]5)CC4)ccc3C2=O)C(=O)N1 (stereo not drawn) [Compound 19, 3-(5-(1-(7-fluoro-1H-indole-2-carbonyl)piperidin-4-yl)-1-oxoinsoindolin-2-yl)piperidine-2,6-dione] |  |
| 37.3% | 37% | Cc1c(C(=O)N2CCC(c3ccc4c(c3)CN(C3CCC(=O)NC3=O)C4=O)CC2)[nH]c2ccccc12 (stereo not drawn) [Compound 21, 3-(5-(1-(3-methyl-1H-indole-2-carbonyl)piperidin-4-yl)-1-oxoinsoindolin-2-yl)piperidine-2,6-dione] |  |
| 67% | 64.5% | O=C1CCC(N2Cc3cc(C4CCN(C(=O)c5[nH]c6ccccc6c5Cl)CC4)ccc3C2=O)C(=O)N1 (stereo not drawn) [Compound 22, 3-(5-(1-(3-chloro-1H-indole-2-carbonyl)piperidin-4-yl)-1-oxoinsoindolin-2-yl)piperidine-2,6-dione] |  |
| 99.6% | 101% | O=C1CCC(N2Cc3cc(C#CCC4CCN(C(=O)c5c[nH]c6ccccc56)CC4)ccc3C2=O)C(=O)N1 (stereo not drawn) [Compound 23, 3-(5-(3-(1-(1H-indole-3-carbonyl)piperidin-4-yl)prop-1-yn-1-yl)-1-oxoinsoindolin-2-yl)piperidine-2,6-dione] |  |
| 88.2% | 93.7% | O=C1CCC(N2Cc3cc(C=C4CCN(C(=O)c5cc6ccccc6[nH]5)CC4)ccc3C2=O)C(=O)N1 (stereo not drawn) [Compound 24, 3-(5-((1-(1H-indole-2-carbonyl)piperidin-4-ylidene)methyl)-1-oxoinsoindolin-2-yl)piperidine-2,6-dione] |  |
| 87.5% | 93.6% | O=C1CCC(N2Cc3cc(C=C4CCN(C(=O)c5c[nH]c6ccccc56)CC4)ccc3C2=O)C(=O)N1 (stereo not drawn) [Compound 25, 3-(5-((1-(1H-indole-3-carbonyl)piperidin-4-ylidene)methyl)-1-oxoinsoindolin-2-yl)piperidine-2,6-dione] |  |
| 97.6% | 96% | O=C1CCC(N2Cc3cc(C=C4CCN(C(=O)c5cc6ccc(Cl)cc6[nH]5)CC4)ccc3C2=O)C(=O)N1 (stereo not drawn) [Compound 26, 3-(5-((1-(6-chloro-1H-indole-2-carbonyl)piperidin-4-ylidene)methyl)-1-oxoinsoindolin-2-yl)piperidine-2,6-dione] |  |
| 91.7% | 96.4% | Cc1c(C(=O)N2CCC(=Cc3ccc4c(c3)CN(C3CCC(=O)NC3=O)C4=O)CC2)[nH]c2ccccc12 (stereo not drawn) [Compound 27, 3-(5-((1-(3-methyl-1H-indole-2-carbonyl)piperidin-4-ylidene)methyl)-1-oxoinsoindolin-2-yl)piperidine-2,6-dione] |  |

— US20260216164A1, “INDOLE COMPOUND DECOMPOSING IKZF2, AND USE THEREOF” (KOREA RESEARCH INSTITUTE OF CHEMICAL TECHNOLOGY, priority 2023, published 2026)
